Like-named read-outs stand apart in the source and are kept apart here.

The test system of data set [1] is HepG2. The data set can be described thus: RT-CES cell proliferation inhibition, HepG2. In kind it is cell-based. Particulars: Homo sapiens. From the text:
(§1) The biological activity of compounds disclosed herein was monitored and profiled using the Real-Time Cell Electronic Sensing (RT-CES®) system from ACEA Biosciences, Inc. The RT-CES system utilizes cell-substrate impedance technology to monitor cellular behavior inside tissue culture wells in a microtiter plate format. The technology features in the integration of molecular and cell biology with microelectronics and is based on the electronic detection of biological assay process. The details of this cell electronic sensing technology and associated devices, systems and methods of use as described in U.S. provisional application No. 60/379,749, filed on Jul. […]
(§2) For measurement of cell-substrate or cell-electrode impedance using RT-CES technology, microelectrodes having appropriate geometries are fabricated onto the bottom surfaces of microtiter plate or similar device, facing into the wells. […] When there are changes to the biological status of the cells analogue electronic readout signals are measured automatically and in real time, and are converted to digital signals for processing and for analysis. In a RT-CES system, a cell index (arbitrary representation of change in impedance) is automatically derived and provided based on measured electrode impedance values. […]
(§3) To quantify cell status based on the measured cell-electrode impedance, a parameter termed Cell Index is derived. […]

Data set [2] has as its system S180 sarcoma. In words: Anti-tumor activity against S180 bearing mouse model. In kind it is in vivo, ICR mice. Particulars: for Inhibition Rate (%) / Tumor Weight: qd for 9 days; for Body Weight (g) Start: mouse, in vivo. The protocol:
ACEA100160 (2-(4-ethoxyphenyl)amino-4-(6-methylimidazo[1,2-a]pyrimidin-3-yl)thiazole) and ACEA 100162 (2-(4-ethoxyphenyl)amino-4-(6-methylimidazo[2,1-b]thiazol-5-yl)thiazole) are prepared at concentration of 8 mg/ml in solution containing 20% HP-beta-CD dextrose (D5W). The solvent HP-beta-CD solution is used as a vehicle negative control.
ICR mice, male, 21.4±1.5 g
S180 sarcoma: murine cancer cell line S180.
The malignant ascites model of ICR mouse was induced by S180 cells.
Under a sterilized condition, sacrifice the ICR murine S180 bearing mice, take out of the ascites and dilute with NS to certain cell numbers. Inject 0.2 ml cell suspension (10^6 cells) subcutaneously into the left flank on ICR mice. On the first treatment day before iv or ip, implanted animals are randomly divided into ten groups as following. The drugs were administrated in the schedule of Table 11 respectively. The solvent HP-beta-CD solution is used as a vehicle negative control. Observe clinical signs at least daily.
Tumor weight was recorded. The tumor inhibitory rate was calculated as follows: inhibitory rate=1-Wt/W0, where Wt is the average weight of each drug treatment group and W0 is the average weight of negative control group. Results are given as mean±SD values from n animals. Comparisons between groups were made with Student's two-tailed t test and a P<0.05 was considered significant.

Data set [3] concerns Jurkat. The data set can be described thus: RT-CES cell proliferation inhibition, Jurkat. Particulars: Homo sapiens, 24 hrs. In kind it is cell-based.
Source text: as §1, §2, §3

Data set [4] concerns KB200. In words: RT-CES cell proliferation inhibition, KB200. In kind it is cell-based. Particulars: Homo sapiens.
Source text: as §1, §2, §3

Data set [5] concerns Hela. In words: RT-CES cell proliferation inhibition, Hela. Particulars: Homo sapiens. In kind it is cell-based.
Source text: as §1, §2, §3

Data set [6] concerns MCF7adr. The data set can be described thus: RT-CES cell proliferation inhibition, MCF7adr. In kind it is cell-based. Particulars: Homo sapiens, NCI/ADR-RES.
Source text: as §1, §2, §3

Regarding `Br.CCOc1ccc(Nc2nc(-c3c(C)nc4sccn34)cs2)cc1` [Compound 27, 2-(4-ethoxyphenyl)amino-4-(6-methylimidazo[2,1-b]thiazol-5-yl)thiazole], the IC50 in data set [1] (HepG2, 24 hrs, read-out: IC50 (24 hr)) is more than 200 nM; in data set [1] (HepG2, 48 hrs, read-out: IC50 (48 hr)), more than 200 nM; in data set [3] it was 45.4 nM; in data set [4] (KB200, 24 hrs, read-out: IC50 (24 hr)) it was 12.1 nM; in data set [4] (KB200, 48 hrs, read-out: IC50 (48 hr)) it was 4.28 nM; in data set [5] (24 hrs, read-out: IC50 (24 hr)) it was 5.85 nM. Also, the half-inhibitory concentration (IC50) in data set [5] (48 hrs, read-out: IC50 (48 hr)) came out at 6.95 nM; in data set [6] (24 hrs, read-out: IC50 (24 hr)), 12.3 nM; in data set [6] (48 hrs, read-out: IC50 (48 hr)), 12.5 nM. In addition, the “Inhibition Rate (%)” value in data set [2] (S180, IP, 40 mg/kg) is listed as 59.3%; in data set [2] (S180, IP, 80 mg/kg) it was 77.2%; in data set [2] (S180, IV, 40 mg/kg), 60.7%. The “Tumor Weight” value in data set [2] (S180, IP, 40 mg/kg) came to 0.61 ± 0.21 g; in data set [2] (S180, IP, 80 mg/kg), 0.34 ± 0.16 g; in data set [2] (S180, IV, 40 mg/kg), 0.59 ± 0.24 g. Further, the “Body Weight (g) Start” value is reported as 20.6 ± 0.4 g in data set [2] (ip, 40 mg/kg); 21.8 ± 1.5 g in data set [2] (ip, 80 mg/kg); 21.0 ± 0.4 g in data set [2] (iv, 40 mg/kg).

Source of the values: patent US8252822B2, “Heterocyclic compounds and uses as anticancer agents” (Acea Biosciences, Inc., priority 2007, dated 2012).
